Reference: paper PMC7999549, “PBP4 Is Likely Involved in Cell Division of the Longitudinally Dividing Bacterium Candidatus Thiosymbion Oneisti” (Antibiotics, 2021)

Columns and labels:
PBP4^TO [1] = molecular target: T1, PBP4^TO (Candidatus Thiosymbion oneisti, UniProt Z9LUN3GEC2); test: Bocillin-FL labelling, SDS-PAGE fluorescence; format: binding; parameters: His-tagged, expressed in cytoplasm of E. coli SF100 (plasmid pJW06, pET302 vector named); gene 1245 nt, 414 aa; dimers and higher oligomers on native PAGE; conditions: pH 7.5, 50 mM NaCl, 10 mM MgCl2, 28 °C, 30 min; covalent
T1 sequence (Z9LUN3GEC2 31-414 limits assumed): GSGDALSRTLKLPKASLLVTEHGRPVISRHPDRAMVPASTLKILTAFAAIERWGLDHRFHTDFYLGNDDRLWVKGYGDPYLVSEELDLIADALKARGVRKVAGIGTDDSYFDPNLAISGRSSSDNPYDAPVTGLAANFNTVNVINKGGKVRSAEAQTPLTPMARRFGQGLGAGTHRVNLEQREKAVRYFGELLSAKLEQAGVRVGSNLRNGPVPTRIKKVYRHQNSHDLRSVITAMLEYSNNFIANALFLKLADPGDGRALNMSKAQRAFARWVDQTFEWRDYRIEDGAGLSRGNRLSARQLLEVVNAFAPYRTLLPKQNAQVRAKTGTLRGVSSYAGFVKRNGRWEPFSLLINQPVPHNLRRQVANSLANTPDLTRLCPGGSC

PBP4^TO [2] = molecular target: T1, PBP4^TO; test: Bocillin-FL competition, SDS-PAGE fluorescence; conditions: pH 7.5, 50 mM NaCl, 10 mM MgCl2, 28 °C, 20 min before 15 μg/mL Bocillin-FL (30 min)

SMILES: CC1=CC(C)=[N+]2C1=Cc1ccc(CCC(=O)Nc3ccc(OCC(=O)N[C@@H]4C(=O)N5[C@@H]4SC(C)(C)[C@@H]5C(=O)O)cc3)n1[B-]2(F)F [Bocillin-FL]
- Bocillin-FL labelling, SDS-PAGE fluorescence (PBP4^TO [1]): Purified PBP4^TO protein was detectable after Bocillin-FL labeling

SMILES: NC(=O)c1cc[n+](CC2=C(C(=O)[O-])N3C(=O)[C@@H](NC(=O)[C@@H](c4ccccc4)S(=O)(=O)O)[C@H]3SC2)cc1 [cefsulodin]
- Bocillin-FL competition, SDS-PAGE fluorescence (PBP4^TO [2]; weak binder): cefsulodin, PBP2 inhibitor mecillinam, PBP4 inhibitor cephalexin

SMILES: CC1(C)S[C@@H]2[C@H](N=CN3CCCCCC3)C(=O)N2[C@H]1C(=O)O [mecillinam]
- Bocillin-FL competition, SDS-PAGE fluorescence (PBP4^TO [2]; weak binder): PBP2 inhibitor mecillinam, PBP4 inhibitor cephalexin

SMILES: C[C@@H](O)[C@H]1C(=O)N2C(C(=O)O)=C(S[C@@H]3CN[C@H](C(=O)N(C)C)C3)[C@H](C)[C@H]12 [meropenem]
- Bocillin-FL competition, SDS-PAGE fluorescence (PBP4^TO [2]; possible allosteric second site at high concentration): does present some affinity for PBP4^TO, whereas Bocillin-FL intensity is enhanced with high-concentration treatment

SMILES: CC1(C)S[C@@H]2[C@H](NC(=O)Cc3ccccc3)C(=O)N2[C@H]1C(=O)O [penicillin G]
- Bocillin-FL competition, SDS-PAGE fluorescence (PBP4^TO [2]): penicillin G had a similar affinity for PBP4^TO as for PBP4^EC
